Values of other authors, collected in patent publication US10183028B2, “Enrichment method of ergosterol peroxide from sporoderm-broken Ganoderma lucidum spore powder” (Guangzhou Polysarm Bioscience Corp., priority 2015, dated 2019).

Tests used:
brain tumor cells (U87) = conditions: Chinese application 201210233192.1
pieris rapae = conditions: Chinese application 01817014.5
prodenia litura = conditions: Chinese application 01817014.5
[1] = tested on: malignant breast cancer cells (MT-1); conditions: Chinese application 201210233192.1
[2] = tested on: human breast cancer and liver cancer; conditions: Chinese application 200610126091.9
[3] = tested on: lymphoma cancer cells (Jurkat); conditions: Chinese application 201210233192.1
[4] = tested on: drug-resistant brain tumor stem cells; conditions: Chinese application 201210233192.1
Hela cancer cells = conditions: Chinese application 201410311586.3
fungal = conditions: Chinese application 200810119948.3
formation of melanin = conditions: Chinese application 01817014.5
aphid = conditions: Chinese application 01817014.5

CC(C)[C@@H](C)C=C[C@@H](C)[C@H]1CC[C@@H]2[C@]1(C)CC[C@H]1[C@]23C=C[C@]2(C[C@@H](O)CC[C@]12C)OO3 [Ergosterol peroxide, 5α,8α-Epidioxyergosta-6,22-dien-3β-ol]
inhibitory effect on brain tumor cells (U87) (brain tumor cells (U87)): significant inhibitory effect
poisoning effects on agricultural pests (pieris rapae): poisoning effects
poisoning effects on agricultural pests (prodenia litura): poisoning effects
inhibitory effect on malignant breast cancer cells (MT-1) [1]: significant inhibitory effect
harmful effects on immune organs and weight [2]: no harmful effects
anti-tumor pharmacological activity ([2]; human breast cancer and liver cancer): significant anti-tumor
inhibitory effect on lymphoma cancer cells (Jurkat) [3]: significant inhibitory effect
killing of drug-resistant brain tumor stem cells [4]: kills
synergy with taxol in killing or damaging Hela cancer cells (Hela cancer cells): synergy with taxol
antifungal bioactivity (fungal): remarkable antifungal bioactivity
inhibitory effects on the formation of melanin (formation of melanin): strong inhibitory effects
poisoning effects on agricultural pests (aphid): poisoning effects
